Reference: US20140193531A1, “Aqueous extracts of deschampsia antarctica” (Uxmal S.A, priority 2012, published 2014)

Tests used:
[1] = system: IL-6 secretion in TNFα-stimulated 3T3-L1 adipocytes; assay: TNFα-stimulated IL-6 secretion in 3T3-L1 adipocytes; type: cell-based, Mouse; settings: data not shown
Description: Post-differentiation, D6/D7 adipocytes were treated with test material 4 h prior to the addition of TNFα at a final concentration of 10 ng/mL. Following overnight incubation of approximately 18 h, the supernatant media were removed and assayed for IL-6. IL-6 secreted into the medium in response to TNFα stimulation was quantified using the Quantikine® Mouse IL-6 Immunoassay kit Immunoassay kit with no modifications (R&D Systems, Minneapolis, Minn.). Experiments assessing the anti-inflammatory activity of the test samples were repeated a minimum of 2 independent times. For statistical analysis, the effects of test materials IL-6 secretion were normalized, respectively, to the TNFα positive control to generate IL-6 indexes. Differences among the treatments were determined by analysis of variance and student's least significant difference test without correction for multiple comparisons; the nominal 5% probability of a type I error was used. Ninety-five percent CI were computed using the ANOVA error mean square estimate of variance (Excel®, Microsoft, Redmond, Wash.).

HaCaT cells = type: cell-based, human
Description: For this assay, 100,000 cells were seeded in a 24-well plate at a total volume of 500 ul in a complete culture medium. After incubating for 24 hours at 37° C. in an atmosphere of 5% CO2, the cells were irradiated with different concentrations of UV light in an irradiation system inside a type 2 biosafety laminar flow hood. The system consisted of 2 florescent tubes, one UVA-emitting 36 W PL-L (320-400 nm) and one UVB-emitting 20 W TL (290-320 nm) (Philips, Eindhoven, the Netherlands). Both tubes were located 5 cm from the bottom of the well to produce homogeneous irradiation intensity. The irradiation intensity was monitored with radiometers for UVB (Solarmeter 6.2 digital UVB radiometer, Solartech Inc., Harrison Township, Mich.) and UVA (Tecpel, CHY-732, Taiwan). The HaCaT cells were irradiated at different time intervals (Table 5) to reach the different accumulative doses of UVA and UVB (Gao et al. 2007). After irradiation with UVA+UVB light, the cells were incubated for 24 hours and the viability of the cells was measured with the MTS assay.
In this assay, 100,000 cells were seeded in a 24-well plate. After incubating for 24 hours at 37° C. in an atmosphere of 5% de CO2, the cells were washed with PBS and incubated with AEDA doses of between 4.5 and 0.5 mg/ml previously diluted in PBS. […]

## C=C[C@@]1(C)CC(=O)[C@]2(O)[C@@]3(C)[C@@H](O)CCC(C)(C)[C@@H]3[C@H](O)[C@H](OC(C)=O)[C@@]2(C)O1 [Forskolin]
[1]
  increase of IL-6 secretion above the TNFα positive control: over 100%

## COc1cc(/C=C/C(=O)O)ccc1O [ferulic acid]
HaCaT cells
  effect on irradiated keratinocytes at higher doses: possible photocytotoxic effect
